Assay results as given in patent US20060183716A1, “2-Methylene-19-nor-(20S-24S)-1alpha,25-dihydroxyvitamin D2” (Wisconsin Alumni Research Foundation, priority 2005, published 2006).

Legend:
vitamin D receptors = target: T1, vitamin D receptors (Homo sapiens, UniProt P11473); conditions: as described in the '352, '861 and '622 patents; cited from earlier work
T1 sequence (P11473 1-427): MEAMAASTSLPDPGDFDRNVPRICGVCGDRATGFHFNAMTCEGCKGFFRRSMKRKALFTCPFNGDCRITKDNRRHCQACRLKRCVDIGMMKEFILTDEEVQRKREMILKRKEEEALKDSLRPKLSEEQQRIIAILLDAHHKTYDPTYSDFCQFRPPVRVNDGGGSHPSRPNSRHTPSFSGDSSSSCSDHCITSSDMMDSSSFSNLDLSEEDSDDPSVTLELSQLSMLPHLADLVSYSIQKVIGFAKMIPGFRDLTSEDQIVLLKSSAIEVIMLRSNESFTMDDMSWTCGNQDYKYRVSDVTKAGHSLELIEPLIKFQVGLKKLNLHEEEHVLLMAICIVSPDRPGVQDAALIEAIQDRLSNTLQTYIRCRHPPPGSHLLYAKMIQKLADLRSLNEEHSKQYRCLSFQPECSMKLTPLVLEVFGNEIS

calcemic activity = conditions: as described in the '352, '861 and '622 patents; cited from earlier work
cell differentiation = conditions: as described in the '352, '861 and '622 patents; cited from earlier work
[1] = test system: bone calcium mobilization; assay: Bone calcium mobilization (serum calcium); assay type: in vivo, Sprague-Dawley rats; conditions: rats on 0.02% Ca diet, four consecutive ip doses; compared with 1,25(OH)2D3; FIG. 4
Source text: (§1) FIG. 4 is a bar graph comparing the bone calcium mobilization activity of (20S/24S) 2-MD2 with that of 1,25(OH)2D3. Male, weanling Sprague-Dawley rats were placed on Diet 11 (0.47% Ca) diet +AEK for one week followed by Diet 11 (0.02% Ca) +AEK for 3 weeks. The rats were then switched to a diet containing 0.47% Ca for one week followed by two weeks on a diet containing 0.02% Ca. Dose administration began during the last week on 0.02% calcium diet. Four consecutive ip doses were given approximately 24 hours apart. Twenty-four hours after the last dose, blood was collected from the severed neck and the concentration of serum calcium determined as a measure of bone calcium mobilization. The first 10 cm of the intestine was also collected for intestinal calcium transport analysis using the everted gut sac method.

[2] = test system: intestinal calcium transport; assay: Intestinal calcium transport (everted gut sac method); assay type: in vivo, Sprague-Dawley rats; conditions: rats on 0.02% Ca diet, four consecutive ip doses, FIG. 5
Source text: as §1, with “FIG. 5 is a” for “FIG. 4 is a”, “comparing the intestinal calcium transport” for “comparing the bone calcium mobilization”, “intestinal calcium transport activity of” for “bone calcium mobilization activity of”

[3] = target: T2, full-length recombinant rat vitamin D receptor (Rattus norvegicus, UniProt P13053); assay: Vitamin D receptor competitive binding with [3H]-1,25-(OH)2-D3; conditions: competition with [3H]-1,25-(OH)2-D3; compared with 1,25(OH)2D3; FIG. 1
T2 construct: Full-length recombinant rat receptor was expressed in E. coli BL21(DE3) Codon Plus RIL cells; histidine tag (C); made in house; host or cells: E. coli BL21(DE3) Codon Plus RIL
T2 sequence (P13053 1-423): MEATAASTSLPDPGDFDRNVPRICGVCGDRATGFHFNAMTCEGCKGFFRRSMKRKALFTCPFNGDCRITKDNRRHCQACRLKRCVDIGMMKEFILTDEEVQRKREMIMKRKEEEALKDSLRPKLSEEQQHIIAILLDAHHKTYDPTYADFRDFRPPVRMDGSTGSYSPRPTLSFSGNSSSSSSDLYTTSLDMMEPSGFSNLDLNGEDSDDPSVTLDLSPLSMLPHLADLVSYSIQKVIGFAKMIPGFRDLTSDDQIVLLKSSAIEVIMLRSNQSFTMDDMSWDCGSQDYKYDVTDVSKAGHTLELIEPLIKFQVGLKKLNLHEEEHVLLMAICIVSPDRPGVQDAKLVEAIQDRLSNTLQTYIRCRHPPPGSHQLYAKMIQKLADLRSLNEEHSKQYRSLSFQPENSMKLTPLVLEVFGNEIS
Source text: FIG. 1 is a graph comparing the relative activity of (20S/24S) 2-MD2 and 1,25(OH)2D3 to compete for binding with [^3H]-1,25-(OH)2-D3 to the full-length recombinant rat vitamin D receptor.
Full-length recombinant rat receptor was expressed in E. coli BL21(DE3) Codon Plus RIL cells and purified to homogeneity using two different column chromatography systems. The first system was a nickel affinity resin that utilizes the C-terminal histidine tag on this protein. The protein that was eluted from this resin was further purified using ion exchange chromatography (S-Sepharose Fast Flow). Aliquots of the purified protein were quick frozen in liquid nitrogen and stored at −80° C. until use. For use in binding assays, the protein was diluted in TEDK50 (50 mM Tris, 1.5 mM EDTA, pH 7.4, 5 mM DTT, 150 mM KCl) with 0.1% Chaps detergent. […]
Unlabeled ligands were dissolved in ethanol and the concentrations determined using UV spectrophotometry (1,25(OH)2D3:molar extinction coefficient=18,200 and λmax=265 nm; Analogs: molar extinction coefficient=42,000 and λmax=252 nm). […]
Radiolabeled and unlabeled ligands were added to 100 mcl of the diluted protein at a final ethanol concentration of ≦10%, mixed and incubated overnight on ice to reach binding equilibrium. […] Total binding was determined from the tubes containing only radiolabeled ligand.

[4] = test system: Human promyelocytic leukemia (HL60) cells; assay: HL-60 cell differentiation (nitro blue tetrazolium reduction); assay type: cell-based; conditions: compared with 1,25(OH)2D3; four days; FIG. 2
Procedure: FIG. 2 is a graph comparing the percent HL-60 cell differentiation as a function of the concentration of (20S/24S) 2-MD2 with that of 1,25(OH)2D3.
The study drugs were dissolved in ethanol and the concentrations determined using UV spectrophotometry. Serial dilutions were prepared so that a range of drug concentrations could be tested without changing the final concentration of ethanol (≦0.2%) present in the cell cultures.
Human promyelocytic leukemia (HL60) cells were grown in RPMI-1640 medium containing 10% fetal bovine serum. The cells were incubated at 37° C. in the presence of 5% CO2.
HL60 cells were plated at 1.2×10^5 cells/ml. Eighteen hours after plating, cells in duplicate were treated with drug. Four days later, the cells were harvested and a nitro blue tetrazolium reduction assay was performed (Collins et al., 1979; J. Exp. Med. 149:969-974). The percentage of differentiated cells was determined by counting a total of 200 cells and recording the number that contained intracellular black-blue formazan deposits. Verification of differentiation to monocytic cells was determined by measuring phagocytic activity (data not shown).

[5] = test system: 24-hydroxylase (24Ohase) gene promoter in ROS 17/2.8 (bone) cells; assay: In vitro transcription assay (24-hydroxylase promoter luciferase reporter); assay type: cell-based; conditions: ROS 17/2.8 cells, sixteen hours after dosing, FIG. 3
Procedure: FIG. 3 is a graph comparing the in vitro transcription activity of (20S/24S) 2-MD2 with that of 1,25(OH)2D3.
Transcription activity was, measured in ROS 17/2.8 (bone) cells that were stably transfected with a 24-hydroxylase (24Ohase) gene promoter upstream of a luciferase reporter gene (Arbour et al., 1998). Cells were given a range of doses. Sixteen hours after dosing the cells were harvested and luciferase activities were measured using a luminometer. RLU=relative luciferase units.

| Molecule | binding activity to vitamin D receptors (vitamin D receptors) | calcemic activity as compared to 1α,25-dihydroxyvitamin D3 (calcemic activity) | cell differentiation activity (cell differentiation) | bone calcium mobilizing activity [1] | intestinal calcium transport [2] | binding to the vitamin D receptor relative to native hormone [3] | inducing differentiation of HL-60 cells relative to native hormone [4] | causing transcription relative to 1,25-(OH)2D3 [5] |
| --- | --- | --- | --- | --- | --- | --- | --- | --- |
| 1α-hydroxy-2-methylene-19-nor-(20S)-homopregnacalciferol | relatively high | little if any | relatively high | – | – | – | – | – |
| 1α-hydroxy-2-methylene-19-nor-bishomopregnacalciferol | relatively high | little if any | relatively high | – | – | – | – | – |
| C=C1[C@H](O)CC(=C/C=C2\CCC[C@]3(C)C([C@@H](C)/C=C/[C@H](C)C(C)(C)O)CC[C@@H]23)C[C@H]1O (stereo in doubt) [2-methylene-19-nor-(20S-24S)-1α,25-dihydroxyvitamin D2] | – | – | – | comparable to 1,25(OH)2D3 | does retain some ability to elevate intestinal calcium transport | almost equal to the native hormone | almost equal to the native hormone | slightly more effective than 1,25-(OH)2D3 |
| C=C1[C@H](O)CC(=C/C=C2\CCC[C@]3(C)[C@@H](CC)CC[C@@H]23)C[C@H]1O [1α-Hydroxy-2-methylene-19-nor-pregnacalciferol] | relatively high | little if any | relatively high | – | – | – | – | – |
